Data from patent US20040043498A1, “Reagent for determining singlet oxygen” (priority 2003, published 2004).

Assay: Light stability of DMAX-EP (photobleaching under continuous excitation light)
Assay type: physicochemical
Settings: 0.1 M phosphate buffer pH 7.4, 0.1% DMSO, 37° C.
Experimental: 5.0 μM aqueous solutions of DMAX-EP (endoperoxide of Compound 11 in the above scheme) and DPAX-1-EP (endoperoxide of Compound 13 described in International Patent Publication WO99/51586, Example 1) [0.1 M phosphate buffer (pH 7.4) containing 0.1% DMSO as a cosolvent] were each placed in a fluorescent cell and exposed to an excitation light of 491 nm at 37° C. with stirring, and fluorescence was measured at 620 nm by using a fluorometer while the solution was continuously exposed to the excitation light.

## DMAX-EP
5.0 μM aqueous solution, excitation 491 nm, fluorescence at 620 nm
  Photobleaching relative to DPAX-1-EP: 5.4 times slower
5.0 μM, continuous 491 nm excitation
  Light stability: excellent light stability
